Experimental data as given in patent US8754115B2, “Fungicidal pyrazoles” (E I du Pont de Nemours and Company, priority 2010, dated 2014).
Marks after values point to notes of the source that are not given here.

Experiments:
Format in all cases: in vivo
[1] = test system: Blumeria graminis f. sp. tritici; assay: Test F: preventive spray on wheat seedlings, visual disease rating (wheat powdery mildew)
In short: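 Compound in acetone/water (50/50) with 250 ppm surfactant, sprayed to run-off on wheat seedlings at 200 ppm (≈800 g/ha) or, where marked, 40 ppm. Seedlings dusted with spores the next day, kept 8 days at 20° C., then rated visually as % disease control versus untreated plants.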

[2] = test system: Septoria tritici; assay: Test D: preventive spray on wheat seedlings, visual disease rating (wheat leaf blotch)
In short: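 Wheat seedlings were sprayed to run-off with a 200 ppm suspension (equal to 800 g/ha), or 40 ppm where marked with an asterisk, and inoculated with Septoria tritici spores the next day. Plants were kept at 24 °C in saturated air for 48 h, then at 20 °C for 19 days. Disease control was rated visually from 0 to 100 relative to controls.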

[3] = test system: Botrytis cinerea; assay: Test A: preventive spray on tomato seedlings, visual disease rating (tomato Botrytis)
In short: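 Tomato seedlings sprayed to run-off with 200 ppm suspension (800 g/ha; asterisk marks 40 ppm), inoculated next day with Botrytis cinerea spores, held 48 h saturated at 20 °C then 3 days at 24 °C. Visual rating: 100 = full disease control, 0 = none, relative to controls.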

[4] = test system: Puccinia recondite f. sp. tritici; assay: Test E2: preventive spray on wheat seedlings, visual disease rating (wheat leaf rust)
In short: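 Test suspension (acetone 3% of volume, acetone/water 50/50, 250 ppm Trem 014), 200 ppm unless starred (40 ppm), sprayed to run-off on wheat seedlings; inoculated next day with P. recondita spores. 24 h saturated atmosphere at 20 °C, then 7 days at 20 °C; visual rating, 100 = full control vs untreated.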

[5] = test system: Septoria nodorum; assay: Test C: preventive spray on wheat seedlings, visual disease rating (Septoria glume blotch)
In short: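 Wheat seedlings were sprayed to run-off with 200 ppm suspension (40 ppm where marked; 200 ppm ≈ 800 g/ha) in acetone/water with 250 ppm Trem 014, then inoculated next day with Septoria nodorum spores. Incubation was 48 h saturated at 24 °C, then 6 days at 20 °C; visual rating 0–100% disease control versus controls.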

[6] = test system: Puccinia recondite f. sp. tritici; assay: Test E1: curative spray on wheat seedlings after inoculation, visual disease rating (wheat leaf rust)
In short: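 Seedlings inoculated with rust spores, held 24 h in saturated atmosphere at 20 °C, then 2 days at 20 °C before curative spray to run-off with test suspension (200 ppm ≈ 800 g/ha, or 40 ppm where marked) in acetone/water with surfactant. Visual disease control rating (0–100) after 6 further days at 20 °C.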

[7] = test system: Alternaria solani; assay: Test B: preventive spray on tomato seedlings, visual disease rating (tomato early blight)
In short: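 Compounds were suspended at 200 ppm (asterisked values at 40 ppm) in acetone/water with surfactant and sprayed to run-off on tomato seedlings, 200 ppm being equivalent to 800 g/ha. A. solani spores were inoculated the next day, with 48 h at 27 °C in saturated air, then 5 days at 20 °C. Disease control was rated visually, 0–100% relative to controls.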

[8] = no asterisk: standard test suspension, not 40 ppm
[9] = no asterisk: standard test suspension, not 40 ppm, 100 = 100% disease control, 0 = none
[10] = asterisk: 40 ppm test suspension

| Compound | Test F rating (% disease control) [1, 8] [%] | Test D rating (% disease control) [2, 8] [%] | Test A rating (% disease control) [3, 9] [%] | Test E2 rating (% disease control) [4, 8] [%] | Test C rating (% disease control) [5, 8] [%] | Test E1 rating (% disease control) [6, 8] [%] | Test B rating (% disease control) [7, 8] [%] | Test F rating (% disease control) [1, 10] | Test D rating (% disease control) [2, 10] | Test A rating (% disease control) [3, 10] | Test E2 rating (% disease control) [4, 10] | Test C rating (% disease control) [5, 10] | Test E1 rating (% disease control) [6, 10] | Test B rating (% disease control) [7, 10] |
| --- | --- | --- | --- | --- | --- | --- | --- | --- | --- | --- | --- | --- | --- | --- |
| Cc1nn(C)c(-c2c(F)cccc2Cl)c1C(O)c1ccc(F)cc1F (stereo not drawn) [compound 33] | 100 | 100 | 100 | 100 | 100 | 99 | 100 | – | – | – | – | – | – | – |
| Cc1nn(C)c(-c2ccc(F)cc2Cl)c1Nc1ccc(Cl)cc1Cl [compound 44] | – | – | – | – | – | – | – | 100* % | 99* % | 99* % | 99* % | 0* % | 0* % | 0* % |
| α-(2,4-difluorophenyl)-5-(2,6-difluorophenyl)-1,3-dimethyl-1H-pyrazole-4-methanol [Compound 14] | 97 | 100 | 98 | 98 | 0 | 75 | 0 | – | – | – | – | – | – | – |
| (2,4-difluorophenyl)-[5-(2,4-difluorophenyl)-1,3-dimethyl-1H-pyrazol-4-yl]methanone [Compound 32] | 0 | 100 | 0 | 9 | 0 | 0 | 96 | – | – | – | – | – | – | – |
| Cc1nn(C)c(-c2ccccc2Br)c1C(O)c1ccc(F)cc1Cl (single isomer, unassigned) [compound 80] | 99 | 100 | 99 | 99 | 69 | 99 | 97 | – | – | – | – | – | – | – |
| Cc1nn(C)c(-c2c(F)cccc2Cl)c1C(O)c1ccc(C#N)cc1F (stereo not drawn) [compound 38] | 98 | 100 | 85 | 100 | 100 | 0 | 99 | – | – | – | – | – | – | – |
| Cc1nn(C)c(-c2ccc(F)cc2Cl)c1Nc1ccc(F)cc1Cl [compound 42] | 100 | 100 | 99 | 99 | 0 | 32 | 99 | – | – | – | – | – | – | – |
| Cc1nn(C)c(-c2c(F)cccc2F)c1C(Cl)c1ccc(F)cc1Cl (stereo not drawn) [Compound 84] | – | – | – | – | – | – | – | 100* % | 100* % | 96* % | 100* % | 99* % | 41* % | 100* % |
| Cc1nn(C)c(-c2c(F)cccc2F)c1C(O)c1ccc(F)cc1Cl (single isomer, unassigned) [compound 86] | 100 | 100 | 99 | 100 | – | – | – | – | – | – | – | 99* % | 99* % | 100* % |
| Cc1nn(C)c(-c2ccc(F)cc2Cl)c1Nc1ccc(F)cc1Br [compound 58] | – | – | – | – | – | – | – | 97* % | 100* % | 100* % | 98* % | 0* % | 0* % | 8* % |
| Cc1nn(C)c(-c2ccc(F)cc2Cl)c1C(O)c1ccc(F)cc1Cl (stereo not drawn) [compound 18] | 100 | 100 | 100 | 100 | 0 | 100 | 83 | – | – | – | – | – | – | – |
| 4-[(2-chloro-4-fluorophenyl)hydroxymethyl]-5-(2,6-difluorophenyl)-1-methyl-1H-pyrazole-3-carbonitrile [Compound 53] | 96 | 95 | 100 | 97 | 0 | 91 | 0 | – | – | – | – | – | – | – |
| Cc1nn(C)c(-c2c(F)cccc2Cl)c1C(O)c1c(F)cc(F)cc1F (stereo not drawn) [compound 34] | 100 | 100 | 100 | 99 | 100 | 84 | 99 | – | – | – | – | – | – | – |
| Cc1nn(C)c(-c2c(F)cccc2Cl)c1C(O)c1c(Cl)cccc1Cl (stereo not drawn) [compound 85] | 50 | 100 | 97 | 100 | 0 | 9 | 84 | – | – | – | – | – | – | – |
| Cc1nn(C)c(-c2c(F)cccc2F)c1[S+]([O-])c1ccc(Cl)cc1 (stereo not drawn) [compound 63] | 76 | 0 | 0 | 28 | 0 | 0 | 0 | – | – | – | – | – | – | – |
